Measurements reported in patent US4680389A, “Temperature stable crystalline di(1-methyl-2-pyrralidinone) and di(N-formylpyrrolidine) adducts of cephalosporin derivatives” (priority 1986, dated 1987).

Legend:
[1] = Stabilities at elevated temperatures (percent potency loss by HPLC, dry containers); format: physicochemical
Procedure: Elevated temperature stabilities were determined by storing the preparations in dry containers (1 dram screw cap vials) at temperatures and for time periods as denoted below. Potency losses or gains were determined by HPLC. […] Each compound form tested was prepared in accordance with the example which is designated.

Rat = test: Toxicity data (LD50) in rat; format: in vivo; details: route not stated
Procedure: (§1) Toxicity data (LD50) was determined for the following compounds which are utilized in the instant invention or prepared according to the instant invention.

[2] = Toxicity data (LD50) in rat; format: in vivo; details: in vivo, route not stated
Procedure: as §1

[3] = Stability in aqueous solution; format: physicochemical; details: 250 mg/ml aqueous solution, ambient pH 4 to 5, at least six hours at 25° C.; 360 min
From the text: These crystalline adducts display acceptable stability when they are placed in solution.

[4] = HPLC stability of Example 1 di(1-methyl-2-pyrrolidinone) adduct at 70° C.; format: physicochemical
Procedure: 1.0 g of the sulfuric acid addition salt of the zwitterion is vigorously slurried in 10 ml of 1-methyl-2-pyrrolidinone (NMP-2) at 25° C.-45° C. The crystalline mass is mixed with 0.49 ml (2.02 molar equivalents) of triethylamine (TEA) over a period of 0.5 to 1.5 hours. The mixture is seeded with 1-methyl-2-pyrrolidinone adduct and vigorously stirred for 6 to 24 hours. The crystals are then separated by vacuum filtration, washed with two 3 ml portions of 1-methyl-2-pyrrolidinone, two 5 ml portions of ether and vacuum dried at 45° to 55° C. for 2 hours.

[5] = elevated temperatures (e.g. 45° C. and above), one week, dry powder; 10080 min; cited from earlier work
various organisms = details: cited from earlier work

## CO/N=C(\C(=O)NC1C(=O)N2C(C(=O)[O-])=C(C[N+]3(C)CCCC3)CSC12)c1csc(N)n1 (centres unmarked)
[1]; 37° C., 1 month, 43200 min, listed as Di(NFP) Adduct
  PERCENT LOSS: 0%
[1]; 45° C., 1 week, 10080 min, listed as Di(NFP) Adduct
  PERCENT LOSS: 0-3%
[1]; 45° C., 4 weeks, 40320 min, listed as Di(NFP) Adduct
  PERCENT LOSS: 3.5-5.9%
[1]; 56° C., 1 week, 10080 min, listed as Di(NFP) Adduct
  PERCENT LOSS: 7.1%
[1]; 56° C., 2 weeks, 20160 min, listed as Di(NFP) Adduct
  PERCENT LOSS: 9.3%
[1]; 70° C., 1 day, listed as Di(NFP) Adduct, 1440 min
  PERCENT LOSS: 1.5%
[1]; 70° C., 3 days, listed as Di(NFP) Adduct, 4320 min
  PERCENT LOSS: 0-4.4%
[1]; dry solid, 56° C., 4 weeks
  degraded at 672 h: 18.1%
Rat; listed as Di(N--formyl pyrrolidine) adduct
  Rat LD50: 495 mg/kg

## CN1CCCC1=O [1-Methyl-2-pyrrolidinone, 1-methyl-2-pyrrolidinone]
Rat
  Rat LD50: < 2500 mg/kg
[2]
  LD50: > 2000 mg/kg

## CN1CCCC1=O.CN1CCCC1=O.CO/N=C(\C(=O)NC1C(=O)N2C(C(=O)[O-])=C(C[N+]3(C)CCCC3)CSC12)c1csc(N)n1 (centres unmarked) [Di(1-methyl-2-pyrrolidinone) adduct, di(1-methyl-2-pyrrolidinone) adduct of 7-[(Z)-2-methoxyimino-2-(2-aminothiazol-4-yl)acetamido-]3-[(1-methyl-1-pyrrolidinium)methyl]-3-cephem-4-carboxylate]
[1]; 37° C., 3 months, 129600 min
  PERCENT LOSS: 1.2%
[1]; 45° C., 4 weeks, 40320 min
  PERCENT LOSS: 1.6%
[1]; 45° C., 6 weeks, 60480 min
  PERCENT LOSS: 3.0%
[1]; 45° C., 8 weeks, 80640 min
  PERCENT LOSS: 0-3%
[1]; 56° C., 1 week, 10080 min
  PERCENT LOSS: 2.1%
[1]; 56° C., 2 weeks, 20160 min
  PERCENT LOSS: 3.4%
[1]; 56° C., 4 weeks, 40320 min
  PERCENT LOSS: 4.2%
[1]; 56° C., 6 weeks, 60480 min
  PERCENT LOSS: 7.0%
[1]; 56° C., 8 weeks, 80640 min
  PERCENT LOSS: 0.9%
[1]; 70° C., 1 day
  PERCENT LOSS: 0%
[1]; 70° C., 2 days
  PERCENT LOSS: 2.1%
[1]; 70° C., 3 days
  PERCENT LOSS: 2.1%
[1]; 70° C., 5 days
  PERCENT LOSS: 2.1%
[1]; 100° C., 1 day
  PERCENT LOSS: 13-16%
[3]
  potency loss in aqueous solution: less than 10%
[4]; 1 Day
  HPLC Stability % Loss: 0-2.3%
[4]; 3 Days
  HPLC Stability % Loss: 5-6.5%
Rat
  Rat LD50: 663 mg/kg

## O=CN1CCCC1 [N--Formyl pyrrolidine, N-formyl pyrrolidine]
Rat
  Rat LD50: < 1000 mg/kg
[2]
  LD50: > 500 mg/kg

## CO/N=C(\C(=O)NC1C(=O)N2C(C(=O)[O-])=C(C[N+]3(C)CCCC3)CSC12)c1csc(N)n1 (centres unmarked) [Zwitterion (Amorphous), 7-[(Z)-2-methoxyimino-2-(2-aminothiazol-4-yl)acetamido]-3-[(1-methyl-1-pyrrolidinium)methyl]-3-cephem-4-carboxylate, reference compound]
[1]; 45° C., 1 week, 10080 min
  PERCENT LOSS: 34.1%
[1]; 45° C., 4 weeks, 40320 min
  PERCENT LOSS: 71%
[1]; 56° C., 1 week, 10080 min
  PERCENT LOSS: 49.6%
[1]; 70° C., 1 day, 1440 min
  PERCENT LOSS: 34.5%
[1]; 70° C., 2 days, 2880 min
  PERCENT LOSS: 46.2%
[1]; 70° C., 3 days, 4320 min
  PERCENT LOSS: 55.2%
[1]; dry solid, 100° C., 1 day
  degraded at 24 h: 100%

## CO/N=C(\C(=O)NC1C(=O)N2C(C(=O)[O-])=C(C[N+]3(C)CCCC3)CSC12)c1csc(N)n1 (centres unmarked) [Zwitterion (Crystalline), 7-[(Z)-2-methoxyimino-2-(2-aminothiazol-4-yl)acetamido]-3-[(1-methyl-1-pyrrolidinium)methyl]-3-cephem-4-carboxylate]
[1]
  temperature stability of crystalline vs amorphous form: more temperature stable than the amorphous form
[1]; 37° C., 1 month, 43200 min
  PERCENT LOSS: 20.0%
[1]; 45° C., 1 week, 10080 min
  PERCENT LOSS: 14.2%
[1]; 56° C., 1 week, 10080 min
  PERCENT LOSS: 25.6%
[1]; 56° C., 2 weeks, 20160 min
  PERCENT LOSS: 30.0%
[1]; 70° C., 2 days, 2880 min
  PERCENT LOSS: 13.5%
[1]; 70° C., 3 days, 4320 min
  PERCENT LOSS: 20.5%
[1]; dry solid, 45° C., 2 weeks
  degraded at 336 h: 23%

## CO/N=C(\C(=O)NC1C(=O)N2C(C(=O)[O-])=C(C[N+]3(C)CCCC3)CSC12)c1csc(N)n1 (centres unmarked) [Zwitterion, 7-[(Z)-2-methoxyimino-2-(2-aminothiazol-4-yl)acetamido]-3-[(1-methyl-1-pyrrolidinium)methyl]-3-cephem-4-carboxylate]
[5]
  loss of activity on storage: ≥ 30%
[2]
  LD50: 665 mg/kg
Various organisms; data in U.S. Pat. No. 4,406,899
  utility against various organisms: broad spectrum utility against various organisms
Various organisms; zwitterion form vs ceftazidime and cefotaxime
  spectrum of activity compared with ceftazidime and cefotaxime: broader spectrum activity than ceftazidime and cefotaxime
